Patent publication US20250215010A1, “DIAZABICYCLOOCTANE DERIVATIVES USEFUL AS MATRIX METALLOPROTEINASE INHIBITORS” (VASA THERAPEUTICS SPOLKA Z OGRANICZONA ODPOWIEDZIALNOSCIA, priority 2022, published 2025)
pIC50: −log10 of the molar value.

Tests used:
Assay type in all cases: biochemical
ADAM17 (TACE) = ADAM17 (TACE) (Homo sapiens, UniProt P78536); assay: TACE fluorometric inhibition assay (Enzo kit BML-AK310); settings: quenched fluorogenic peptide, ex/em 320/420 nm; read-out: TACE IC50 class
Description: (§1) The inhibitory activities of the compounds of the invention were assessed in 96-well microplate format using MMP1, MMP2, MMP9 and MMP13 colorimetric assay kits and TACE fluorometric assay kit from Enzo Life Sciences, Inc. The inhibitory effect of the compounds of the invention on ADAM10 activity were evaluated in 96-well microplate format using fluorometric assay from AnaSpec, Inc.
The TACE Fluorometric Drug Discovery Kit (catalog #BML-AK310) is a complete assay system designed to screen ADAM17 (TACE) inhibitors using a quenched fluorogenic peptide: Mca-PLAQAV-Dpa-RSSSR—NH2. Mca fluorescence is quenched by the Dpa group until cleavage by proteases separates the two moieties leading to an increase in Mca fluorescence.
The inhibitory activity of the compounds of the invention against TACE was tested according to the manufacturer's assay protocol and the fluorescence was monitored at excitation/emission wavelengths=320 nm/420 nm using Tecan Infinite® 200 Pro F Nano^+ microplate reader.
(§2) The normalized values were analyzed using GraphPadPrism 9 for Windows (GraphPad Software, San Diego, CA, USA) software by plotting inhibition curves and determining the IC50 values (in nM).

MMP2 = biological target: T1, MMP2 (Homo sapiens, UniProt P08253); assay: MMP-2 colorimetric inhibition assay (Enzo kit BML-AK408); settings: thiopeptide substrate, absorbance 415 nm; read-out: MMP 2 IC50 class
T1 sequence (P08253 110-660): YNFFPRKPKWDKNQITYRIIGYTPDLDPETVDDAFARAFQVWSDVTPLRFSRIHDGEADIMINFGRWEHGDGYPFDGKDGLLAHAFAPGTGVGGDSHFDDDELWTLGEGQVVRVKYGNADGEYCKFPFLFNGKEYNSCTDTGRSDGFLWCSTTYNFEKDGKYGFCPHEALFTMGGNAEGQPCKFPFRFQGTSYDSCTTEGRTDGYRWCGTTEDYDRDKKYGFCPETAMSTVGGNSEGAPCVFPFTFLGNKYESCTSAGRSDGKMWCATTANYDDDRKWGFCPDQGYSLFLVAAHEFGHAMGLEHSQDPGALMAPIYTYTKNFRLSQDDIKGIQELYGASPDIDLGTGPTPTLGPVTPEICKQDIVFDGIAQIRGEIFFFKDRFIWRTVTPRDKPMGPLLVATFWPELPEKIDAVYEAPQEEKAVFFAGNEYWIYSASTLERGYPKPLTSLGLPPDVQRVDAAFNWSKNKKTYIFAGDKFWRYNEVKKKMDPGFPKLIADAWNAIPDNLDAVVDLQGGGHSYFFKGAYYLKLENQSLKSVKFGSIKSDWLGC
Description: as §1
(§3) The MMP-2 Colorimetric Drug Discovery Kit (catalog #BML-AK408) is a complete assay system designed to screen MMP-2 inhibitors using a thiopeptide as a chromogenic substrate (Ac-PLG-[2-mercapto-4-methylpentanoyl]-LG-OC2H5). The MMP cleavage site peptide bond is replaced by a thioester bond in the thiopeptide. Hydrolysis of this bond by an MMP produces a sulfhydryl group, which reacts with DTNB [5,5′-dithiobis(2-nitrobenzoic acid), Ellman's reagent] to form 2-nitro-5-thiobenzoic acid, that can be detected spectrophotometrically.
(§4) The inhibitory activities of the compounds of the invention against MMP1, MMP2, MMP9 and MMP13 were tested according to the manufacturer's assay protocols and the absorbance at 415 nm was monitored using the Tecan Infinite® 200 Pro F Nano^+ microplate reader.
as §2

MMP1 = biological target: T2, MMP1 (Homo sapiens, UniProt P03956); assay: MMP-1 colorimetric inhibition assay (Enzo kit BML-AK404); settings: thiopeptide substrate, absorbance 415 nm; read-out: MMP 1 IC50 class
T2 sequence (P03956 100-269 limits assumed): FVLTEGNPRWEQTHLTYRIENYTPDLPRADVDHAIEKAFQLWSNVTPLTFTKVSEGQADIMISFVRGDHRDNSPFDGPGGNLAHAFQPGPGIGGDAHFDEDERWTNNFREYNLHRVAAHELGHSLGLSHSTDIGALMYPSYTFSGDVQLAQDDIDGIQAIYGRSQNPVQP
Description: as §1
as §3, with “MMP-1” for “MMP-2”, “#BML-AK404)” for “#BML-AK408)”, “screen” for “screen MMP-2”, “inhibitors of matrix metalloproteinase-1” for “inhibitors”
as §4, §2

MMP13 = biological target: T3, MMP13 (Homo sapiens, UniProt P45452); assay: MMP-13 colorimetric inhibition assay (Enzo kit BML-AK412); settings: thiopeptide substrate, absorbance 415 nm; read-out: MMP 13 IC50 class
T3 construct: purchased Enzo Life Sciences, Inc. BML-AK412
Description: as §1
as §3, with “MMP-13” for “MMP-2”, “#BML-AK412)” for “#BML-AK408)”, “screen” for “screen MMP-2”, “inhibitors of matrix metalloproteinase-13” for “inhibitors”
as §4, §2

MMP9 = MMP9 (Homo sapiens, UniProt P14780); assay: MMP-9 colorimetric inhibition assay (Enzo kit BML-AK410); settings: thiopeptide substrate, absorbance 415 nm; read-out: MMP 9 IC50 class
Description: as §1
as §3, with “MMP-9” for “MMP-2”, “#BML-AK410)” for “#BML-AK408)”, “screen” for “screen MMP-2”, “inhibitors of matrix metalloproteinase-9” for “inhibitors”
as §4, §2

MMP9, sequence (P14780 94-707): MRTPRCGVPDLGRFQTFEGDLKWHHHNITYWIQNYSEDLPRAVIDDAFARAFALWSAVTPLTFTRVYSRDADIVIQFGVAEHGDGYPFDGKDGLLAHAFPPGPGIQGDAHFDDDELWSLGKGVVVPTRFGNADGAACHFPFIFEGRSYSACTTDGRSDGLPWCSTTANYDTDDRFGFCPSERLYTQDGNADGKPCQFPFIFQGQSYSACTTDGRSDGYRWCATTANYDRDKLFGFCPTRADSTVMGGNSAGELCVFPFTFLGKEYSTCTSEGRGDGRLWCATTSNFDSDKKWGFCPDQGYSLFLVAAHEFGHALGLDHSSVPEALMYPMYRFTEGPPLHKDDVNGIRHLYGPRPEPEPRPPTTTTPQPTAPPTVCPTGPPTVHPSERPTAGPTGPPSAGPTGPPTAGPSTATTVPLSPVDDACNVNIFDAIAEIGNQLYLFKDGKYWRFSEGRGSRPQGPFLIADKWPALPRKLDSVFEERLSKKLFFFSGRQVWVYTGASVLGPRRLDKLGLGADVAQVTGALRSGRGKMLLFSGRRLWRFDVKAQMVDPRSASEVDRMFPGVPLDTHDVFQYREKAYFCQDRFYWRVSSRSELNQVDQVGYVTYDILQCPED
ADAM17 (TACE), sequence (P78536 215-477 limits assumed): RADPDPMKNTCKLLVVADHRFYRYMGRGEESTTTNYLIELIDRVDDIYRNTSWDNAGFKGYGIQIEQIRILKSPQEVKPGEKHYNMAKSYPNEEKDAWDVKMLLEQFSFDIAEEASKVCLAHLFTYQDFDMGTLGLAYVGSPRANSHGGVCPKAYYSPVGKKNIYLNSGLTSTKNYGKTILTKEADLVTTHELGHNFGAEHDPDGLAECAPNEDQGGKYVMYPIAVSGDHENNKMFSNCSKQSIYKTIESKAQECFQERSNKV

CC(C)Oc1ccc(Oc2ccc(S(=O)(=O)N3C[C@H]4CC[C@@H]([C@@H]3C(=O)NO)N4C(=O)N3CCOCC3)cn2)cc1 [Example 71, (1S,2R,5R)-N-hydroxy-3-((6-(4-isopropoxyphenoxy)-pyridin-3-yl)sulfonyl)-8-(morpholine-4-carbonyl)-3,8-diazabicyclo[3.2.1]-octane-2-carboxamide]
pIC50 (ADAM17 (TACE)): < 5.00 | pIC50 (MMP2): > 7.30 | pIC50 (MMP1): 5.00 to 6.00 | pIC50 (MMP13): > 7.30 | pIC50 (MMP9): 6.00 to 7.30

COCCOC(=O)N1[C@@H]2CC[C@H]1[C@H](C(=O)NO)N(S(=O)(=O)c1ccc(Oc3nc4cc(F)ccc4o3)c(F)c1)C2 [Example 83, 2-methoxyethyl (1S,2R,5R)-3-((3-fluoro-4-((5-fluoro-benzo[d]oxazol-2-yl)oxy)phenyl)sulfonyl)-2-(hydroxy-carbamoyl)-3,8-diazabicyclo[3.2.1]-octane-8-carboxylate]
pIC50 (MMP2): 5.00 to 6.00 | pIC50 (MMP13): 5.00 to 6.00 | pIC50 (MMP9): 5.00 to 6.00

COCCOC(=O)N1[C@@H]2CC[C@H]1[C@H](C(=O)NO)N(S(=O)(=O)c1ccc(Oc3cnn(-c4ccc(F)cc4)c3)nc1)C2 [Example 40, 2-methoxyethyl (1S,2R,5R)-3-((6-((1-(4-fluorophenyl)-1H-pyrazol-4-yl)oxy)pyridin-3-yl)sulfonyl)-2-(hydroxycarbamoyl)-3,8-diazabicyclo-[3.2.1]octane-8-carboxylate]
pIC50 (ADAM17 (TACE)): 6.00 to 7.30 | pIC50 (MMP2): > 7.30 | pIC50 (MMP1): 6.00 to 7.30 | pIC50 (MMP13): > 7.30 | pIC50 (MMP9): > 7.30

COCCOC(=O)N1[C@@H]2CC[C@H]1[C@H](C(=O)NO)N(S(=O)(=O)c1cc(F)c(Oc3cnn(C)c3)c(F)c1)C2 [Example 42, 2-methoxyethyl (1S,2R,5R)-3-((3,5-difluoro-4-((1-methyl-1H-pyrazol-4-yl)oxy)phenyl)sulfonyl)-2-(hydroxycarbamoyl)-3,8-diazabicyclo[3.2.1]octane-8-carboxylate]
pIC50 (ADAM17 (TACE)): 6.00 to 7.30 | pIC50 (MMP2): 6.00 to 7.30 | pIC50 (MMP1): 5.00 to 6.00 | pIC50 (MMP13): 6.00 to 7.30 | pIC50 (MMP9): 6.00 to 7.30

COCCOC(=O)N1[C@@H]2CC[C@H]1[C@H](C(=O)NO)N(S(=O)(=O)c1ccc(Oc3cnc(OC)nc3)nc1)C2 [Example 27, 2-methoxyethyl (1S,2R,5R)-2-(hydroxycarbamoyl)-3-((6-((2-methoxy-pyrimidin-5-yl)oxy)-pyridin-3-yl)-sulfonyl)-3,8-diaza-bicyclo[3.2.1]octane-8-carboxylate]
pIC50 (ADAM17 (TACE)): 5.00 to 6.00 | pIC50 (MMP2): > 7.30 | pIC50 (MMP1): < 5.00 | pIC50 (MMP13): 6.00 to 7.30 | pIC50 (MMP9): 6.00 to 7.30

COCCOC(=O)N1[C@@H]2CC[C@H]1[C@H](C(=O)NO)N(S(=O)(=O)c1ccc(Oc3nc4ccc(F)cc4o3)c(F)c1)C2 [Example 82, 2-methoxyethyl (1S,2R,5R)-3-((3-fluoro-4-((6-fluoro-benzo[d]oxazol-2-yl)oxy)phenyl)-sulfonyl)-2-(hydroxycarbamoyl)-3,8-diazabicyclo-[3.2.1]octane-8-carboxylate]
pIC50 (ADAM17 (TACE)): 6.00 to 7.30 | pIC50 (MMP2): 5.00 to 6.00 | pIC50 (MMP1): < 5.00 | pIC50 (MMP13): 5.00 to 6.00 | pIC50 (MMP9): 5.00 to 6.00

CCN1CCC(Oc2ccc(S(=O)(=O)N3C[C@H]4CC[C@@H]([C@@H]3C(=O)NO)N4C(=O)OCCOC)cn2)CC1 [Example 74, 2-methoxyethyl (1S,2R,5R)-3-((6-((1-ethylpiperidin-4-yl)oxy)pyridin-3-yl)sulfonyl)-2-(hydroxycarbamoyl)-3,8-diazabicyclo[3.2.1]octane-8-carboxylate]
pIC50 (ADAM17 (TACE)): < 5.00 | pIC50 (MMP2): < 5.00 | pIC50 (MMP1): < 5.00 | pIC50 (MMP13): < 5.00 | pIC50 (MMP9): 5.00 to 6.00

COCCOC(=O)N1[C@@H]2CC[C@H]1[C@H](C(=O)NO)N(S(=O)(=O)c1ccc(Oc3ccc(C(C)(C)O)cc3)nc1)C2 [Example 26, 2-methoxyethyl (1S,2R,5R)-2-(hydroxycarbamoyl)-3-((6-(4-(2-hydroxy-propan-2-yl)-phenoxy)pyridin-3-yl)sulfonyl)-3,8-diazabicyclo[3.2.1]-octane-8-carboxylate]
pIC50 (ADAM17 (TACE)): 5.00 to 6.00 | pIC50 (MMP2): > 7.30 | pIC50 (MMP1): < 5.00 | pIC50 (MMP13): 6.00 to 7.30 | pIC50 (MMP9): 6.00 to 7.30

COCCOC(=O)N1[C@@H]2CC[C@H]1[C@H](C(=O)NO)N(S(=O)(=O)c1cc(F)c(Oc3ccc(Cl)cc3)c(F)c1)C2 [Example 2, (1S,2R,5R)-2-methoxyethyl 3-((4-(4-chlorophenoxy)-3,5-difluoro-phenyl)sulfonyl)-2-(hydroxycarbamoyl)-3,8-diazabicyclo-[3.2.1]octane-8-carboxylate]
pIC50 (MMP2): 6.00 to 7.30 | pIC50 (MMP13): 6.00 to 7.30 | pIC50 (MMP9): 6.00 to 7.30

COCCOC(=O)N1[C@H]2CC[C@@H]1[C@@H](C(=O)NO)N(S(=O)(=O)c1cc(F)c(Oc3ccc(Cl)cc3)c(F)c1)C2 [Example 3, 2-methoxyethyl (1R,2S,5S)-3-((4-(4-chlorophenoxy)-3,5-difluorophenyl)-sulfonyl)-2-(hydroxycarbamoyl)-3,8-diaza-bicyclo[3.2.1]octane-8-carboxylate]
pIC50 (MMP2): 5.00 to 6.00 | pIC50 (MMP13): 5.00 to 6.00 | pIC50 (MMP9): 5.00 to 6.00

COCCOC(=O)N1[C@@H]2CC[C@H]1[C@H](C(=O)NO)N(S(=O)(=O)c1ccc(Oc3nc4ccccc4o3)nc1)C2 [Example 84, 2-methoxyethyl (1S,2R,5R)-3-((6-(benzo[d]oxazol-2-yloxy)pyridin-3-yl)sulfonyl)-2-(hydroxycarbamoyl)-3,8-diazabicyclo[3.2.1]octane-8-carboxylate]
pIC50 (MMP2): < 5.00 | pIC50 (MMP13): < 5.00 | pIC50 (MMP9): < 5.00

COCCOC(=O)N1[C@@H]2CC[C@H]1[C@H](C(=O)NO)N(S(=O)(=O)c1ccc(-c3cccc(F)c3)nc1)C2 [Example 4, 2-methoxyethyl (1S,2R,5R)-3-((6-(3-fluorophenyl)pyridin-3-yl)sulfonyl)-2-(hydroxycarbamoyl)-3,8-diaza-bicyclo[3.2.1]octane-8-carboxylate]
pIC50 (MMP2): 6.00 to 7.30 | pIC50 (MMP13): 6.00 to 7.30 | pIC50 (MMP9): 5.00 to 6.00
